Measured values published in patent US20210189346A1, “METHOD OF CULTURING PROLIFERATIVE HEPATOCYTES” (INSERM (INSTITUT NATIONAL DE LA SANTÉ ET DE LA RECHERCHE …, priority 2018, published 2021).
Read-outs that look alike come from different tables or passages of the source.

Assays:
[1] = system: primary human hepatocytes (PHH)
[2] = system: MAPK MEK1/2-ERK1/2 pathway
[3] = system: primary human hepatocytes (PHH); remark: listed apart in the source
Experimental: PHH either in control 2D culture (2D) or in 3D culture established according to the method of the invention in a collagen matrix (3D) were incubated with the indicated genotoxic drugs at the indicated concentrations (see Table 7) from the start of the culture. After 9 days, PHH were extracted from the collagen matrix by the action of purified collagenase. The cell pellets were resuspended in 0.5% low-melting point agarose and laid on conventional microscope slides covered with regular agarose. The electrophoresis migration was processed and after staining with propidium iodide, at least 100 images were acquired using a fluorescence microscope. The images were analyzed using the Comet Assay IV software. The extent of DNA damage in individual cells was evaluated by the percentage of tail DNA.

[4] = system: primary human hepatocytes (PHH); assay type: cell-based
Experimental: After 9 days, immuno-histochemical staining was performed as described hereinabove to detect the presence of phosphorylated H2AX (i.e., γH2Ax), a marker of DNA double-strand break, in the PHH.

CYP 1A1/2 = settings: human
CYP1A2 = assay type: cell-based, human; settings: 3-MC 5 μM for 24 h; 3D versus control 2D culture
Experimental: Then, total RNA was extracted from cell pellets using NucleoSpin RNA (Macherey-Nagel, Hoerdt, France) and the concentration of total RNA was measured with a NanoDrop ND-1000 (NanoDrop Technologies, Wilmington, USA). Total RNA was used for cDNA synthesis using the High Capacity cDNA reverse transcription kit (Applied Biosystems, Saint Aubin, France). Real-time PCR for all genes was performed using SYBR green technology with the Power SYBR Green PCR master mix (Applied Biosystems, Saint Aubin, France) and the CFX384 Real-Time System (Biorad) according to the manufacturer's recommendations. Primer sequences used are described in Tables 2 and 3 below.
The amplification curves were analyzed with the Biorad CFX Manager software using the comparative regression method. GAPDH was used for the normalization of expression data. The relative amount of measured mRNA in samples was determined using the 2-ΔΔCT method where ΔΔCT=(CTtarget-CTGAPDH)sample−(CTtarget-CTGAPDH)calibrator. Final results were expressed as the n-fold differences in target gene expression in tested samples when compared with the mean expression value of calibrator. Values are given for one experiment representative of at least three independent experiments.

N#CC(=C(/N)Sc1ccccc1N)/C(C#N)=C(\N)Sc1ccccc1N [U0126]
Ki67 / cyclin D1 positive cells after transient MEK/ERK inhibition [1]: No positive cells could be detected
ERK1/2 activity (ERK1/2 phosphorylation) [2]: strong inhibition of ERK1/2 activity

Nc1ccc(-c2ccccc2)cc1 [4-ABP, 4-aminobiphenyl]
levels of DNA damages in 3D culture, in words [3]: higher (about the double) and dose-dependent levels of DNA damages
levels of DNA damages (percentage of tail DNA) ([3]; human): about 3%
PHH with DNA damages (γH2Ax positive cells) ([4]; human): about 50%

aflatoxin B1 [AFB1]
PHH with DNA damages (γH2Ax positive cells) [4]: about 35%

Cc1ccc2cc3c(ccc4ccccc43)c3c2c1CC3 [3-MC, 3-methylcholanthrene]
induction of CYP1A (EROD) activity (CYP 1A1/2): potentialization of 3-methylcholanthrene (3-MC) induction of CYP1A (EROD) activity was only observed in PHH in 3D culture
CYP1A2 mRNA expression after 3-MC induction (CYP1A2): significantly increased CYP1A2 mRNA expression in PHH in 3D culture as compared to that in PHH in control 2D culture
